Data taken from article PMC6005341, “Identification of “sarsasapogenin-aglyconed” timosaponins as novel Aβ-lowering modulators of amyloid precursor protein processing” (Chemical Science, 2016).

Legend:
[1] = test system: Aβ42 levels in rat primary cortical neuron culture; experiment: Aβ42 in conditioned medium of rat primary cortical neuron culture, 5-day incubation; type: cell-based; conditions: n = 3
Description: Reagents: All reagents were of analytical grade (purity > 98%) and were purchased from Sigma-Aldrich Chemical Co. unless otherwise specified. SSG (1) was purchased from Wako Pure Chemical Industries, Ltd. Diosgenin (6), Dioscin (9), Polyphyllin D (10), Timosaponin BI (22) and Timosaponin BII (23) were purchased from Chengdu Must Bio-Technology Co.
(§1) Ltd. Yamogenin (7) was bought from Ambinter c/o Greenpharma while Smilagenin (24) was bought from Steraloids Inc. Substances dissolved in DMSO as stock solutions. Cell culture medium constituents were purchased from Life Technologies, Inc.
Cell culture: Neuro-2A cells expressing Swedish mutants of APP (N2A-APPswe provided by Prof. Yifan Han, The Hong Kong Polytechnic University)1 was cultured in minimal essential medium with 2 mM glutamine, 2 mM pyruvate and 10% fetal bovine serum. Cells were seeded at 6-well plate at 1×106 cells/mL and grown for two days until confluence. The medium was replaced and the testing compounds were added at indicated concentrations for […]
Primary cortical neurons were prepared from embryonic day 17 Sprague-Dawley rats (Laboratory Animal Unit, The University of Hong Kong). Cerebral cortices were mechanically dissociated in complete medium (MEM with 18 mM glucose; 2 mM L-glutamine; 5% FBS; hormone cocktail, penicillin (50 U/mL), streptomycin (50 μg/mL), and […]). Cells were seeded onto six-well plate (0.5 × 10^6 cells/well) pre-coated with poly-L-lysine. […]
rabbit antibody (Millipore). The immunoreactivities were detected using enhanced chemiluminescence reagents (GE Health care). […]
Aβ ELISA: Aβ concentrations in conditioned medium were assayed using ELISA kits for human Aβ40, human Aβ42 (ultrasensitive) (Invitrogen), human Aβ38 (MyBioSource) (in N2A-APPswe cells) or Wako High Sensitive Aβx-42 ELISA kit (in Rat primary cortical neuron culture). The viability of the N2A-APPswe and Primary cortical neurons were determined by MTT and LDH release assays, respectively. […]

[2] = test system: Aβ42 production in N2A-APPswe cells; experiment: Aβ42 in conditioned medium of N2A-APPswe cells by ELISA, 18 h treatment; type: cell-based; conditions: for decrease in Aβ42 / Aβ42-lowering effect (in words): N2A-APPswe cells; for decrease in Aβ42: 18 h; for IC50: N2a-APPswe, read-out: IC50 in lowering Aβ42 production, N2A-APPswe cells, mean ± standard deviation, n ≥ 3
Description: Sigma-Aldrich Chemical Co. unless otherwise specified. SSG (1) was purchased from Wako Pure Chemical Industries, Ltd. Diosgenin (6), Dioscin (9), Polyphyllin D (10), Timosaponin BI (22) and Timosaponin BII (23) were purchased from Chengdu Must Bio-Technology Co.
as §1
Cell culture: Neuro-2A cells expressing Swedish mutants of APP (N2A-APPswe provided by Prof. Yifan Han, The Hong Kong Polytechnic University)1 was cultured in minimal essential medium with 2 mM glutamine, 2 mM pyruvate and 10% fetal bovine serum. […]
Aβ ELISA: Aβ concentrations in conditioned medium were assayed using ELISA kits for […]

SMILES | Aβ42 reduction (%) ([1]; 5 μM) | decrease in Aβ42 ([2]; 50 μM) | decrease in Aβ42 ([2]; 100 μM) | IC50 [2] | Aβ42 reduction (%) ([1]; 10 μM) | Aβ42-lowering effect (in words) [2]
C[C@H]1CC[C@@]2(OC1)O[C@H]1C[C@H]3[C@@H]4CC[C@@H]5C[C@@H](O)CC[C@]5(C)[C@H]4CC[C@]3(C)[C@H]1[C@@H]2C [SSG (1), sarsasapogenin] | 25 ± 4% | 55% | 40% | 53 ± 9 µM | – | –
C[C@H]1CC[C@@]2(OC1)O[C@H]1C[C@H]3[C@@H]4CC[C@@H]5C[C@@H](O[C@@H]6O[C@H](CO)[C@H](O)[C@H](O)[C@H]6O)CC[C@]5(C)[C@H]4CC[C@]3(C)[C@H]1[C@@H]2C [TAI (3), timosaponin A I] | – | – | – | ~6.1 µM | 28 ± 5% | effectively lowered
C[C@H]1CC[C@@]2(OC1)O[C@H]1C[C@H]3[C@@H]4CC[C@@H]5C[C@@H](O[C@@H]6O[C@H](CO)[C@H](O)[C@H](O)[C@H]6O[C@@H]6O[C@H](CO)[C@@H](O)[C@H](O)[C@H]6O)CC[C@]5(C)[C@H]4CC[C@]3(C)[C@H]1[C@@H]2C [TAIII (2), timosaponin A III] | 42 ± 9% | – | – | ~2.3 µM | – | effectively lowered
